Results published in ChEMBL document CHEMBL2417443, “Efficient synthesis and antiproliferative activity of novel thioether-substituted flavonoids” (Eur J Med Chem, 2013).

How the values were obtained:
Format in all cases: functional, cell-based
[1] = tested on: MCF7; experiment: Cytotoxicity against human MCF7 cells after 72 hrs by MTT assay; conditions: MCF7, 72 h
[2] = tested on: HEp-2; experiment: Cytotoxicity against human Hep2 cells after 72 hrs by MTT assay; conditions: HEp-2, 72 h
[3] = Cytotoxicity against human MDA-MB-435S cells after 72 hrs by MTT assay
[4] = tested on: SW480; experiment: Cytotoxicity against human SW480 cells after 72 hrs by MTT assay; conditions: SW480, 72 h
[5] = Cytotoxicity against human LM7 cells after 72 hrs by MTT assay; conditions: LM7, 72 h
[6] = tested on: HeLa; experiment: Cytotoxicity against human HeLa cells after 72 hrs by MTT assay

SMILES | IC50 [1] [µM] | IC50 [2] [µM] | IC50 [3] [µM] | IC50 [4] [µM] | IC50 [5] [µM] | IC50 [6] [µM]
Cc1cc(O)cc2oc(=O)cc(CSc3nc4ccccc4o3)c12 | > 25 | > 25 | > 25 | > 25 | > 25 | > 25
Cc1nnc(SCc2cc(=O)c3ccccc3o2)s1 | > 25 | > 25 | > 25 | > 25 | > 25 | > 25
Cc1cc(C)nc(SCn2cnc3ccccc3c2=O)n1 | > 25 | > 25 | > 25 | > 25 | > 25 | > 25
COC(=O)Nc1ccc2c(CSc3nc(C)cc(C)n3)cc(=O)oc2c1 | 9.9 | 8 | 19 | 13.2 | 8.2 | 14.3
Nc1nnc(SCc2coc3ccccc3c2=O)s1 | > 25 | 1.5 | 0.95 | > 25 | 0.73 | > 25
Cc1cc(C)nc(SCc2cc(=O)c3cc(Cl)ccc3o2)n1 | > 25 | > 25 | > 25 | > 25 | > 25 | > 25
Cc1nnc(SCc2cc(=O)c3cc(Cl)ccc3o2)o1 | > 25 | > 25 | > 25 | > 25 | > 25 | > 25
Nc1nnc(SCc2cc(=O)c3cc(Cl)ccc3o2)s1 | > 25 | > 25 | > 25 | > 25 | > 25 | > 25
Cc1nnc(Sc2c(C)oc3ccccc3c2=O)o1 | > 50 | > 50 | > 50 | > 50 | > 50 | > 50
O=c1c2ccccc2ncn1CSc1nc2ccccc2s1 | > 25 | > 25 | > 25 | > 25 | > 25 | > 25
Cc1cc(C)n2nc(SCc3cc(=O)c4cc(Cl)ccc4o3)nc2n1 | > 25 | > 25 | > 25 | > 25 | > 25 | > 25
Cc1ccc2oc(CSc3nc4ccccc4s3)cc(=O)c2c1 | > 25 | > 25 | > 25 | > 25 | > 25 | > 25
Cc1cc(C)n2nc(SCc3nnc(SCc4coc5ccccc5c4=O)s3)nc2n1 | 9.5 | 5.3 | 1.1 | 1.5 | 2.5 | > 25
O=c1c2cccc(Cl)c2ncn1CSc1nc2ccccc2o1 | > 25 | > 25 | > 25 | > 25 | > 25 | > 25
Cc1nnc(SCc2cc(=O)c3cc(Cl)ccc3o2)s1 | > 25 | > 25 | > 25 | > 25 | > 25 | > 25
O=c1cc(SCn2cnc3c(Cl)cccc3c2=O)sc2ccccc12 | > 25 | > 25 | > 25 | > 25 | > 25 | > 25
Cc1ccc2oc(CSc3nc4nc(C)cc(C)n4n3)cc(=O)c2c1 | > 25 | > 25 | > 25 | > 25 | > 25 | > 25
O=c1c(CSc2nc3ccccc3o2)coc2ccccc12 | 4.8 | 2.7 | 1.4 | 3.2 | 5.3 | > 25

SMILES | IC50 [1] [µM] | IC50 [2] [µM] | IC50 [3] [µM] | IC50 [4] [µM] | IC50 [5] [µM] | IC50 [6] [µM]
Cc1cc(C)nc(SCn2cnc3c(Cl)cccc3c2=O)n1 | > 25 | > 25 | > 25 | > 25 | > 25 | > 25
O=c1cc(CSc2nc3ccccc3o2)c2ccc(O)c(O)c2o1 | > 25 | > 25 | > 25 | > 25 | > 25 | > 25
Nc1nnc(SCc2cc(=O)oc3c2ccc2ccccc23)s1 | > 25 | > 25 | > 25 | > 25 | > 25 | > 25
Nc1nc(SCc2coc3ccccc3c2=O)n[nH]1 | > 25 | 21.3 | 8.3 | 21.4 | 16.9 | > 25
Cc1cc(O)cc2oc(=O)cc(CSc3nc4ccccc4[nH]3)c12 | > 25 | > 25 | > 25 | > 25 | > 25 | > 25
Cc1cc(C)n2nc(SCc3nnc(SCc4cc(=O)oc5c4ccc4ccccc45)s3)nc2n1 | > 25 | > 25 | > 25 | > 25 | > 25 | > 25
Cc1nnc(SCc2cc(=O)c3ccccc3o2)o1 | > 25 | > 25 | > 25 | > 25 | > 25 | > 25
O=c1c2cccc(Cl)c2ncn1CSc1nc2ccccc2s1 | > 25 | > 25 | > 25 | > 25 | > 25 | > 25
Nc1nnc(SCc2cc(=O)c3ccccc3o2)s1 | > 25 | > 25 | > 25 | > 25 | > 25 | > 25
Cc1cc(O)cc2oc(=O)cc(CSc3nc4ccccc4s3)c12 | > 25 | > 25 | > 25 | > 25 | > 25 | > 25
Cc1nnc(Sc2coc3ccccc3c2=O)s1 | > 50 | > 50 | > 50 | > 50 | > 50 | > 50
O=c1cc(CSc2nc3ccccc3s2)oc2ccccc12 | > 25 | > 25 | > 25 | > 25 | > 25 | > 25
O=c1c2ccccc2ncn1CSc1nc2ccccc2o1 | > 25 | > 25 | > 25 | > 25 | > 25 | > 25
Cc1cc(C)nc(SCc2coc3ccccc3c2=O)n1 | > 25 | 55.1 | > 25 | > 25 | > 25 | > 25
Cc1cc(C)n2nc(SCc3nnc(SCc4coc5ccccc5c4=O)n3N)nc2n1 | > 25 | 7.1 | 3 | 3.6 | 1.9 | > 25
Cc1cc(C)n2nc(SCc3nnc(SCc4cc(=O)c5ccccc5o4)n3-c3ccccc3)nc2n1 | > 25 | > 25 | > 25 | > 25 | > 25 | > 25
Cc1cc(C)n2nc(SCc3cc(=O)c4ccccc4o3)nc2n1 | > 25 | > 25 | > 25 | > 25 | > 25 | > 25
O=c1[nH]cc(F)c(=O)[nH]1 [FLUOROURACIL] | 3.6 |  |  |  | 18.6 | 3.4
